{"source": "patent US6172038A", "about": "“Antipathogenic peptides and compositions comprising them” (priority 1996, dated 2001)", "assay_type_in_all_cases": "cell-based", "key": {"[1]": {"system": "human red blood cells (hRBC)", "assay": "Hemolysis of human red blood cells", "settings": "50 μM peptide, 30 min at 37° C.", "experimental": "(ix) Hemolysis of human red blood cells. The peptides were tested for their hemolytic activities against human red blood cells (hRBC). Fresh hRBC with EDTA were rinsed 3 times with PBS (35 mM phosphate buffer/0.15 M NaCl, pH 7.3) by centrifugation for 10 min at 800 g and resuspended in PBS. Peptides dissolved in PBS were then added to 50 μL of a solution of the stock hRBC in PBS to reach a final volume of 100 μL (final erythrocyte concentration, 5% v/v). The resulting suspension was incubated under agitation for 30 min at 37° C. The samples were then centrifuged at 800 g for 10 min. Release of hemoglobin was monitored by measuring the absorbance of the supernatant at 540 nm. Controls for zero hemolysis (blank) and 100% hemolysis consisted of hRBC suspended in PBS and Triton 1%, respectively."}, "Escherichia coli D21": {"system": "Escherichia coli D21", "assay": "Antibacterial activity (MIC), growth inhibition in 96-well plates"}, "[2]": {"system": "P. aeruginosa and E. coli", "assay": "Effect of pooled human serum on antibacterial activity", "experimental": "(vi) Preparation of serunl Blood was collected from five volunteers and allowed to clot at room temperature for 4 h. The blood was then centrifuged for 15 min at 1500 g, and the serum was removed and pooled. The serum complement was inactivated by heating at 56° C. for 30 min.\n(viii) Antibacterial activity of the peptides. The antibacterial activity of the diastereomers was examined in sterile 96-well plates (Nunc F96 microtiter plates) in a final volume of 100 μL as follows: Aliquots (50 μl) of a suspension containing bacteria at a concentration of 10^6 Colony-Forming Units (CFU)/ml LB (Lauria broth) medium were added to 50 μL of water or 66% pooled normal human serum in PBS, containing the peptide in 2-fold serial dilutions. Growth inhibition was determined by measuring the absorbance at 492 nm with a Microplate autoreader El309 (Bio-tek Instruments), following incubation for 18-20 h at 37° C. […] The bacteria used were: Escherichia coli D21, Pseudomonas aeruginosa ATCC 27853, Acinetobacter calcoaceticus Acl1, Salmonella typhimurium LT2, Bacillus megaterium Bml1, Micrococcus luteus ATCC 9341, Bacillus subtilis ATCC 6051."}, "[3]": {"system": "Bacillus subtilis ATCC 6051", "assay": "Antibacterial activity (MIC), growth inhibition in 96-well plates", "settings": "100% inhibition of growth after 18-20 h at 37° C."}, "Bacillus megaterium Bm11": {"system": "Bacillus megaterium Bm11", "assay": "Antibacterial activity (MIC), growth inhibition in 96-well plates", "settings": "100% inhibition of growth after 18-20 h at 37° C."}, "[4]": {"system": "Acinetobacter calcoaceticus Ac11", "assay": "Antibacterial activity (MIC), growth inhibition in 96-well plates", "settings": "100% inhibition of growth after 18-20 h at 37° C."}, "[5]": {"system": "Pseudomonas aeruginosa ATCC 27853", "assay": "Antibacterial activity (MIC), growth inhibition in 96-well plates; also synergy with tetracycline", "experimental": "(viii) Antibacterial activity of the peptides.\nAntibacterial activity of the mixtures was determined as described in Experimental procedures, section (xii)."}, "[6]": {"settings": "100% inhibition of growth after 18-20 h at 37° C."}}, "data": [{"substance": "dermaseptin S [reference compound]", "values": [{"measurement": "% hemolysis at 50 μM peptide", "setting": "[1]", "result": 9, "unit": "%"}, {"measurement": "Minimal Inhibitory Concentration E. coli (D21) 0% Serum", "setting": "Escherichia coli D21; 0% Serum", "result": 6, "unit": "µM"}, {"measurement": "Minimal Inhibitory Concentration E. coli (D21) 33% Serum", "setting": "Escherichia coli D21; 33% pooled human serum", "result": 50, "unit": "µM"}, {"measurement": "Minimal Inhibitory Concentration E. coli (D21)", "setting": "Escherichia coli D21; [6]", "result": 6, "unit": "µM"}, {"measurement": "fold less active in the presence of serum", "setting": "[2]", "result": "8-10 fold"}, {"measurement": "Minimal Inhibitory Concentration B. subtilis (ATCC 6051)", "setting": "[3]", "result": 4, "unit": "µM"}, {"measurement": "Minimal Inhibitory Concentration B. megaterium (Bm11)", "setting": "Bacillus megaterium Bm11", "result": 0.5, "unit": "µM"}, {"measurement": "Minimal Inhibitory Concentration A. calcoaceticus (Ac11)", "setting": "[4]", "result": 3, "unit": "µM"}, {"measurement": "Minimal Inhibitory Concentration P. aeruginosa (ATCC-27853) 0% Serum", "setting": "[5]; 0% Serum", "result": 25, "unit": "µM"}, {"measurement": "Minimal Inhibitory Concentration P. aeruginosa (ATCC-27853) 33% Serum", "setting": "[5]; 33% pooled human serum", "result": 200, "unit": "µM"}, {"measurement": "Minimal Inhibitory Concentration P. aeruginosa (ATCC 27853)", "setting": "[5]; [6]", "result": 25, "unit": "µM"}]}]}
